Results: patent publication US6495571B1, “Pyridine compounds, use and preparation thereof” (Southern Research Institute, priority 1999, dated 2002)
Where two headings read alike, the source gives them in different places.

Legend:
[1] = test system: P388/CPA (cyclophosphamide-resistant) leukemia; type: in vivo, CD2F1 female mice; conditions: Q1D × 5 (1)
[2] = Cytotoxicity in vitro; type: cell-based
[3] = test system: P388/0 murine leukemia; conditions: Q1D × 5 (1)
[4] = test system: P388/L-PAM (melphalan-resistant) leukemia
[5] = test system: human MX-1 mammary tumor (ic, 10^6 cells); assay: In vivo antitumor activity, i.c.-implanted MX-1 xenograft
[6] = test system: P388/BCNU (carmustine-resistant) leukemia; assay: Antitumor activity against IP-implanted P388/BCNU leukemia; conditions: Q1D × 5 (1)
[7] = IP 60.0 mg/kg/dose, Q1D × 5 (1)
[8] = IP 135.0 mg/kg/dose, Q1D × 5 (1)
[9] = optimal doses (LD10 or less), schedule QD1-5, administered LP.

COc1nc(C(Cl)(Cl)Cl)c(Cl)c(O)c1Cl [DM-PEN, 3,5-dichloro-2-methoxy-4-hydroxy-6-(trichloromethyl)pyridine]
50-DAY SURV./TOTAL ([1]; IP 60.0 mg/kg/dose): 0/6
% ILS ([1]; IP 60.0 mg/kg/dose): +22%
MEDIAN DAY OF DEATH ([1]; IP 60.0 mg/kg/dose): 13.5
50-DAY SURV./TOTAL ([1]; IP 90.0 mg/kg/dose): 0/6
% ILS ([1]; IP 90.0 mg/kg/dose): +54%
50-DAY SURV./TOTAL ([1]; IP 135.0 mg/kg/dose): 0/6
% ILS ([1]; IP 135.0 mg/kg/dose): +31%
MEDIAN DAY OF DEATH ([1]; IP 135.0 mg/kg/dose): 14.5
activity as cytotoxic agents in vitro [2]: inactive
50-DAY SURV./TOTAL ([3]; IP 60.0 mg/kg/dose): 0/6
50-DAY SURV./TOTAL ([3]; IP 90.0 mg/kg/dose): 0/6
MEDIAN DAY OF DEATH ([3]; IP 90.0 mg/kg/dose): 19.0
50-DAY SURV./TOTAL ([3]; IP 135.0 mg/kg/dose): 0/6
APPROX. NET LOG10 CHANGE IN TUMOR BURDEN AT END OF Rx ([3]; IP 135.0 mg/kg/dose): TOXIC
MEDIAN DAY OF DEATH ([3]; IP 135.0 mg/kg/dose): 8.5
50-DAY SURV./TOTAL [4, 7]: 0/6
MEDIAN DAY OF DEATH [4, 7]: 13.5
50-DAY SURV./TOTAL ([4]; IP 90.0 mg/kg/dose, Q1D × 5 (1)): 0/6
50-DAY SURV./TOTAL [4, 8]: 0/6
Lethality of the dosage (LD mark beside % ILS) [4, 8]: LD33
activity in this tumor model (in words) ([4]; mouse, in vivo): none of the three showed significant activity
cures ([5]; Table 2 conditions): not
Median % ILS (based on dying mice only) [5, 9]: 60%
Survivors [5, 9]: 0/5
50-DAY SURV./TOTAL ([6]; IP 60.0 mg/kg/dose): 0/6
% ILS ([6]; IP 60.0 mg/kg/dose): +33%
APPROX. NET LOG10 CHANGE IN TUMOR BURDEN AT END OF Rx ([6]; IP 60.0 mg/kg/dose): +0.8
50-DAY SURV./TOTAL ([6]; IP 90.0 mg/kg/dose): 0/6
APPROX. NET LOG10 CHANGE IN TUMOR BURDEN AT END OF Rx ([6]; IP 90.0 mg/kg/dose): −0.6
MEDIAN DAY OF DEATH ([6]; IP 90.0 mg/kg/dose): 14.0
50-DAY SURV./TOTAL ([6]; IP 135.0 mg/kg/dose): 0/6
% ILS ([6]; IP 135.0 mg/kg/dose): +88%
Lethality of the dosage (LD mark beside % ILS) ([6]; IP 135.0 mg/kg/dose): LD17
